In article PMC6233161, “The anti-tumor diterpene oridonin is a direct inhibitor of Nucleolin in cancer cells” (Scientific Reports, 2018):

How the values were obtained:
[1] = biological target: T1, Nucleolin (Homo sapiens, UniProt P19338); assay: SPR (Biacore […], immobilized Nucleolin on CM5 chip); supported by CETSA, DARTS and affinity pull-down; format: binding
T1 construct: gene NCL; Recombinant human Nucleolin

[2] = biological target: T2, HSP70 (Homo sapiens, UniProt P0DMV8); assay: DARTS in Jurkat lysate and living cells at […] (MS and western blot); pull-down with immobilized oridonin; format: cell-based
T2 construct: gene HSPA1A
T2 sequence (P0DMV8 2-641): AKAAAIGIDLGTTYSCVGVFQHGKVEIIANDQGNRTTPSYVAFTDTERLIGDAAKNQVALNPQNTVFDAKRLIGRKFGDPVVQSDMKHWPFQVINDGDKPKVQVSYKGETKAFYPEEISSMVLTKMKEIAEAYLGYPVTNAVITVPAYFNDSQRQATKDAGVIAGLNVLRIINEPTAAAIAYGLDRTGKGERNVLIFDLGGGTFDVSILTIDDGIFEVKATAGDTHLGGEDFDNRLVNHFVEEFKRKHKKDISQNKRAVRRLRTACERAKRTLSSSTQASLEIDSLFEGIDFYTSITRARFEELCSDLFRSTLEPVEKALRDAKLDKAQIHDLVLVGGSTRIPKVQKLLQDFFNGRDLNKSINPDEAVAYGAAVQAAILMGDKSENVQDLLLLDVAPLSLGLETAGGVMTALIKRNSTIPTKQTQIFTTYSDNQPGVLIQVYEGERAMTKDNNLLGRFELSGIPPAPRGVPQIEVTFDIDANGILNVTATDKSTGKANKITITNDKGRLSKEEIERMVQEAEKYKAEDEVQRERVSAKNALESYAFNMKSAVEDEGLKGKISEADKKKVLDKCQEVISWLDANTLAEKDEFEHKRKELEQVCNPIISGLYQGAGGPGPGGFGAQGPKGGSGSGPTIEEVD

T1 sequence (P19338 2-710): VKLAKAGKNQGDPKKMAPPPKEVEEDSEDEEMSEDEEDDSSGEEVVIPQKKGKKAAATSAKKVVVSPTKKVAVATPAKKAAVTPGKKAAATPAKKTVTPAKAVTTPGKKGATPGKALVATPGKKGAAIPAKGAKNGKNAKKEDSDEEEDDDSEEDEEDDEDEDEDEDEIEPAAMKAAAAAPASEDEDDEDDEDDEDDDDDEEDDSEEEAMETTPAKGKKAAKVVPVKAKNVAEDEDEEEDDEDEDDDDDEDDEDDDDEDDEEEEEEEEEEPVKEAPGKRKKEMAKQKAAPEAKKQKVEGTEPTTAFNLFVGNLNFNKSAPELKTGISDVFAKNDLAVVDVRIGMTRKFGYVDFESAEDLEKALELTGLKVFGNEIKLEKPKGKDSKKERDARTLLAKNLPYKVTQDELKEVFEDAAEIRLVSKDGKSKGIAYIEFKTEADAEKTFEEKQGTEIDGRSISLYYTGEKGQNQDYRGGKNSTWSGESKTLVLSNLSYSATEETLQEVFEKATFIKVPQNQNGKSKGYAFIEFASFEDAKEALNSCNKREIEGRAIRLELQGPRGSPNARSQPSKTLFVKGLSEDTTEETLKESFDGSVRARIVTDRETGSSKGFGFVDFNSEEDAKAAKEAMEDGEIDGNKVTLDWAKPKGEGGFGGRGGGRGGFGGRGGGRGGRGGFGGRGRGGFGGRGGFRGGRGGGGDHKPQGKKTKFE

Kd [1]: 3.8 ± 1.2 nM
SMILES: C=C1C(=O)[C@]23[C@H](O)[C@H]1CC[C@H]2[C@@]12CO[C@]3(O)[C@@H](O)[C@@H]1C(C)(C)CC[C@@H]2O [oridonin]
DARTS in Jurkat lysate and living cells at 5 μM (MS and western blot); pull-down [2]: only three proteins emerged as putative oridonin targets: HSP70, HSP90, and Nucleolin
